Measurements reported in paper PMC6533572, “Elucidation of the Differences in Cinobufotalin’s Pharmacokinetics Between Normal and Diethylnitrosamine-Injured Rats: The Role of P-Glycoprotein” (Frontiers in Pharmacology, 2019).
Read-outs that look alike come from different tables or passages of the source.

Columns and labels:
Huh-7 cells = assay: Cell viability CCK-8 assay, Huh-7 cells; assay type: cell-based; details: Homo sapiens, 40 nM, 60 nM and 80 nM, 24 h, read-out: inhibition of Huh-7 cells growth (CCK-8)
Protocol: Hepatocellular cancer cells (HepG2 and Huh-7) were purchased from the cell bank of the Chinese Academy of Science (Shanghai, China). These cells were cultured in Dulbecco’s modified Eagle’s medium (DMEM) containing 10% fetal bovine serum (FBS), penicillin (100 units/mL) and streptomycin (100 units/mL) in a humidified atmosphere with 5% CO2 at 37 °C.
Furthermore, the effect of cinobufotalin at 40, 60, 80 nM on hepatocellular cancer cells (HepG2 and Huh-7 cells) viability was conducted using Cell Counting Kit - 8 (CCK-8) assay (Sigma-Aldrich, St Louis, MO). In brief, cells were seeded into 96-well plates at 5 × 10^3 cells/well and cultured for 24 h in DMEM medium as described in 1.1 section. Then various concentrations of cinobufotalin (40, 60, 80 nM) were added into cells. After 24 h treatment, 10 μL of CCK-8 solution was added into every well of the plate. The plate was incubated in the incubator for other 4 h, and then the absorbance was measured at 450 nm using a microplate reader (Thermo Scientific, Rockford, IL). The cell viability was calculated by the formula: cell viability (100%) = (OD value of the treated wells - OD value of the blank control wells) / (OD value of the negative control wells - OD value of the blank control wells).

[1] = Stability in 50% acetonitrile solution; assay type: physicochemical
Protocol: (§1) In addition, the stabilities of cinobufotalin at 20, 200, and 2000 ng/mL in different storage conditions were evaluated, including short term stability (such as 25°C for 4, 8, 12, and 24 h and 4°C for 4, 8, 12, and 24 h), long term stability (-80°C for 10 days) and three freeze-thaw cycles in rat plasma. Stabilities were expressed as the concentrations after different operations to the concentration at time zero. All of the samples were processed as described in Preparation of rat plasma samples section. A 5 μL aliquot was injected to UPLC-QTOF/MS for analyses.
In addition, we also evaluated the stability of cinobufotalin in 50% accetonitrile solution at 4°C and room temperature (25°C) after storage for 4, 8, 12, and 24 h.

P-glycoprotein (P-gp) = target: T1, P-glycoprotein (P-gp) (Homo sapiens, UniProt P08183); assay: Bidirectional transport across MDCK-MDR1 cell monolayers; assay type: in vitro ADME; details: for Net flux ratio: ER MDCK-MDR1 / ER MDCK II, cinobufotalin 20 μM; for Papp A→B at 120 min, 20 μM / Papp B→A at 120 min, 20 μM / efflux ratio at 120 min, 20 μM: dog, MDCK-MDR1, cinobufotalin 20 μM; for efflux ratio at 120 min, 20 μM: read-out: ER
T1 construct: expressed in transfected cells; host or cells: MDCK II (Madin Darby canine kidney) cells stably transfected with the MDR1 gene
Protocol: MDCK II and MDCK-MDR1 cells were seeded into 12-well Transwell polycarbonate membrane inserts (12 mm diameter inserts, 0.4 μm pore size, Corning Costar) at a density of 6 × 10^5 cells/well. Cells were cultured at 37°C under 5% CO2 in DMEM with 10% FBS, and the culture medium was refreshed every other day. Experiments were conducted when the tight junctional cell monolayer formed. First, the cells were washed three times using 37°C preheated HBSS buffer (pH = 7.4) and preincubated in a shaking incubator for 30 min at 37°C. Then the transport studies were initiated after the blank HBSS buffer and dosing solution (HBSS buffer containing cinobufotalin at a final concentration of 20 μM) were added to the receiver compartment and donor compartment, respectively. Verapamil, if used, was added to both compartment during the incubated period. The volumes of the apical side (AP) and basolateral side (BL) were 0.5 and 1.5 mL, respectively. Samples (100 μL) were taken from the receiver compartment every 30 min during the incubation period of 120 min, and then replaced with the same volume of […]. At the end of the incubated period, aliquots of 100 μL were withdrawn from the donor compartment to calculated mass balance. All samples were mixed with 50 μL acetonitrile and centrifuged at 4°C (12,000 g, 10 min. The supernatant was subjected to UPLC-QTOF/MS for analyses.
The apparent permeability (cm/s) from apical-to-basal (Papp,AP-BL) and basal-to-apical (Papp,BL-AP) were calculated according to the following Equation (4), where dQ/dt is the rate of drug permeation (nmol/s), A is the area of polycarbonate membrane (A = 1.12 cm^2), and C0 is the initial concentration of cinobufotalin in the donor compartment.
The efflux ratio (ER) and net flux ratio were calculated according to Equations (5) and (6) as described in our previous research ([Sun et al., 2017]).
(5) ER=Papp, BL−AP/Papp, AP−BL
(6) Net flux ratio=ERMDCK−MDRI/ERMDCK II

[2] = Stability in rat plasma under storage conditions; assay type: physicochemical
Protocol: as §1

[3] = pH 7.4, with verapamil (concentration not stated), in both compartments, with verapamil

T1 sequence (P08183 whole entry): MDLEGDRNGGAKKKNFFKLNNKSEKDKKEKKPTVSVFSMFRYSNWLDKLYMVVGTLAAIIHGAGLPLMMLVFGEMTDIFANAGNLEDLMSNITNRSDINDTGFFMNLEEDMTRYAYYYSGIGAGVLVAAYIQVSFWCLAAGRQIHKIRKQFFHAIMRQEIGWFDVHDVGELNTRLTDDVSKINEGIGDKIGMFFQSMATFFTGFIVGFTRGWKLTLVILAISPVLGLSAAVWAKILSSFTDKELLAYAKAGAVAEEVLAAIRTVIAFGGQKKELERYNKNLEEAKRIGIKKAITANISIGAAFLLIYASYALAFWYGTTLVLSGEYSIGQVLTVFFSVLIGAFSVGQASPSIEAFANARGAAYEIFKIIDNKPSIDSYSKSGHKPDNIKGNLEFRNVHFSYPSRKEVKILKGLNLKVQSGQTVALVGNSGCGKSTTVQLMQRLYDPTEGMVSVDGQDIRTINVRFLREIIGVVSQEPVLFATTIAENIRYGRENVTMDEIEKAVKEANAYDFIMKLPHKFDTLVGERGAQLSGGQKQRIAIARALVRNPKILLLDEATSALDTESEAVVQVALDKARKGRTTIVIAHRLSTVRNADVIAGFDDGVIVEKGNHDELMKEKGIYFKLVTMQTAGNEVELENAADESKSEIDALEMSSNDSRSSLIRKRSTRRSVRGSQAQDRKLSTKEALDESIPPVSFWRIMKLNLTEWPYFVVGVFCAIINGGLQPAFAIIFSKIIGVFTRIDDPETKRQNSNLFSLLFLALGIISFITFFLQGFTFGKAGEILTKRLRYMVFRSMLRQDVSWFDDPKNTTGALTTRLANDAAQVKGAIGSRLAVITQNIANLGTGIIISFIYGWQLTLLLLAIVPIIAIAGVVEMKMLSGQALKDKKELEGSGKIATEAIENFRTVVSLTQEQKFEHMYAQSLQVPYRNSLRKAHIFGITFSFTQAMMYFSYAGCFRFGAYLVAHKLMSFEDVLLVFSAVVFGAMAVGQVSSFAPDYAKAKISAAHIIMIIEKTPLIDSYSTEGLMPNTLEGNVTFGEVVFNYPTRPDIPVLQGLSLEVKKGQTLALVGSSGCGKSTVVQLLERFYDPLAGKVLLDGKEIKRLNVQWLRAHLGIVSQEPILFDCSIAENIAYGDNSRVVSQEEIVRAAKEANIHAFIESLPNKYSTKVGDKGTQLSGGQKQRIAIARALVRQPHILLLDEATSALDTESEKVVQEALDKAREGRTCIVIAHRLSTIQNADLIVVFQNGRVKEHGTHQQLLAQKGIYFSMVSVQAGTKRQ

CC(=O)O[C@H]1[C@H]2O[C@]23[C@@H]2CC[C@]4(O)C[C@@H](O)CC[C@]4(C)[C@H]2CC[C@]3(C)[C@H]1c1ccc(=O)oc1 [Cinobufotalin]
inhibition at 0.04 µM (Huh-7 cells): < 15% | Stability in 50% Acetonitrile solution, 4°C, 4 h ([1]; 20 ng/mL): 97.5 ± 5.7% | Stability in 50% Acetonitrile solution, 4°C, 8 h ([1]; 20 ng/mL): 101.9 ± 3.6% | Stability in 50% Acetonitrile solution, 4°C, 12 h ([1]; 20 ng/mL): 99.1 ± 2.5% | Stability in 50% Acetonitrile solution, 4°C, 24 h ([1]; 20 ng/mL): 100.4 ± 2.7% | Stability in 50% Acetonitrile solution, 25°C, 4 h ([1]; 20 ng/mL): 99.5 ± 4.4% | Stability in 50% Acetonitrile solution, 25°C, 8 h ([1]; 20 ng/mL): 97.1 ± 2.3% | Stability in 50% Acetonitrile solution, 25°C, 12 h ([1]; 20 ng/mL): 97.7 ± 4.6% | Stability in 50% Acetonitrile solution, 25°C, 24 h ([1]; 20 ng/mL): 95.5 ± 4.3% | Stability in 50% Acetonitrile solution, 4°C, 4 h ([1]; 200 ng/mL): 102.6 ± 6.8% | Stability in 50% Acetonitrile solution, 4°C, 8 h ([1]; 200 ng/mL): 99.5 ± 4.0% | Stability in 50% Acetonitrile solution, 4°C, 12 h ([1]; 200 ng/mL): 97.4 ± 2.9% | Stability in 50% Acetonitrile solution, 4°C, 24 h ([1]; 200 ng/mL): 96.7 ± 2.6% | Stability in 50% Acetonitrile solution, 25°C, 4 h ([1]; 200 ng/mL): 100.1 ± 2.8% | Stability in 50% Acetonitrile solution, 25°C, 8 h ([1]; 200 ng/mL): 101.2 ± 2.0% | Stability in 50% Acetonitrile solution, 25°C, 12 h ([1]; 200 ng/mL): 99.5 ± 4.3% | Stability in 50% Acetonitrile solution, 25°C, 24 h ([1]; 200 ng/mL): 99.0 ± 2.8% | Stability in 50% Acetonitrile solution, 4°C, 4 h ([1]; 2000 ng/mL): 102.0 ± 5.0% | Stability in 50% Acetonitrile solution, 4°C, 8 h ([1]; 2000 ng/mL): 103.7 ± 3.5% | Stability in 50% Acetonitrile solution, 4°C, 12 h ([1]; 2000 ng/mL): 96.3 ± 4.0% | Stability in 50% Acetonitrile solution, 4°C, 24 h ([1]; 2000 ng/mL): 97.9 ± 2.5% | Stability in 50% Acetonitrile solution, 25°C, 4 h ([1]; 2000 ng/mL): 100.3 ± 3.0% | Stability in 50% Acetonitrile solution, 25°C, 8 h ([1]; 2000 ng/mL): 99.1 ± 1.1% | Stability in 50% Acetonitrile solution, 25°C, 12 h ([1]; 2000 ng/mL): 98.4 ± 3.5% | Stability in 50% Acetonitrile solution, 25°C, 24 h ([1]; 2000 ng/mL): 100.5 ± 3.3% | Net flux ratio (P-glycoprotein (P-gp)): 2.1 | Net flux ratio (P-glycoprotein (P-gp); with verapamil): 1.0 | decrease of net flux ratio when verapamil was used (P-glycoprotein (P-gp); MDCK-MDR1 vs MDCK II, with verapamil): 50.7% | Papp A→B at 120 min, 20 μM (P-glycoprotein (P-gp); [3]): 32.1 ± 1.5 ×10⁻⁶ cm/s | Papp B→A at 120 min, 20 μM (P-glycoprotein (P-gp); [3]): 34.5 ± 2.3 ×10⁻⁶ cm/s | efflux ratio at 120 min, 20 μM (P-glycoprotein (P-gp); [3]): 1.1 | Papp A→B at 120 min, 20 μM (P-glycoprotein (P-gp); pH 7.4): 19.4 ± 1.3 ×10⁻⁶ cm/s | Papp B→A at 120 min, 20 μM (P-glycoprotein (P-gp); pH 7.4): 42.4 ± 1.5 ×10⁻⁶ cm/s | efflux ratio at 120 min, 20 μM (P-glycoprotein (P-gp); pH 7.4): 2.2 | P-gp substrate identification (P-glycoprotein (P-gp); net flux ratio higher than 2 and reduction more than 50% with verapamil): substrate of P-gp | Stability in rat plasma, Freezing-thaw 3 cycles ([2]; 20 ng/mL): 99.2 ± 0.8% | Stability in rat plasma, -80°C for 10 days ([2]; 200 ng/mL): 100.9 ± 1.2% | Stability in rat plasma, Freezing-thaw 3 cycles ([2]; 200 ng/mL): 95.6 ± 1.6% | Stability in rat plasma, -80°C for 10 days ([2]; 2000 ng/mL): 97.3 ± 5.6% | Stability in rat plasma, Freezing-thaw 3 cycles ([2]; 2000 ng/mL): 99.2 ± 0.6%
